Laboratory results published in BindingDB's records for doi:10.1021/jm990266k (Warner-Lambert, 1999).
pIC50: −log10 of the molar value.

Assay: Compound was tested for the inhibition of [3H]-thymidine uptake in CHO p-5 cells transfected with human Dopamine receptor D4.2

Compound	pIC50
Cc1ccc(N2CCN(Cc3ccc4ccc(=O)oc4c3)CC2)cc1Cl [7-[4-(3-Chloro-4-methyl-phenyl)-piperazin-1-ylmethyl]-chromen-2-one]	8.27
Cc1ccc(N2CCN(Cc3ccc4oc(=O)ccc4c3)CC2)cc1 [6-(4-p-Tolyl-piperazin-1-ylmethyl)-chromen-2-one]	< 6.00
